{"source": "patent US10493046B2", "about": "“5-hydroxytryptamine 1B receptor-stimulating agent for use as a promoter of satellite cells self-renewal and/or differentiation” (INSTITUT PASTEUR, priority 2015, dated 2019)", "key": {"[1]": {"system": "HUVEC", "assay": "In vitro HUVEC assay on cytodex beads in plasma of treated mice", "type": "cell-based, human", "conditions": "plasma from mice treated P.O 6 weeks; 4 days post plating", "method": "C57Bl/6 mice were treated P.O for 6 weeks and plasma was extracted from blood. HUVEC cells were then plated on cytodex beads and cultured in either of the plasma. The growth of HUVEC incubated with plasma coming from treated animals was faster 4 days post plating (p≤0.0001) (FIGS. 2m-o)."}, "[2]": {"system": "primary human myoblasts", "assay": "Primary human myoblasts plated in plasma from treated mice", "type": "cell-based", "conditions": "plasma from fluoxetine-treated mice"}, "[3]": {"system": "satellite cells", "assay": "Satellite cells in vitro in plasma of treated mice (live videomicroscopy, immunostaining)", "type": "cell-based, mouse", "conditions": "for Reserve cells (quiescent Pax7 positive cells) 14 days post-plating: plasma from fluoxetine-treated animals", "method": "(§1) Muscle dissection was done as previously described in cold DMEM. Muscles were then chopped with small scissors and put in a 50 ml Falcon tube with collagenase 0.1% and trypsin 0.25% at 37° C. with gentle agitation. After 20 minutes, the supernatant was collected in 20% serum placed on ice, and the collagenase/trypsin solution was added to continue the digestion. Once muscle was completely digested, the solution was filtrated using 40 μm cell strainers. Satellite cells were cultured in 1:1 DMEM-Glutamax (Gibco#41965-039):MCDB201 (Sigma#M6770) containing 20% serum FBS (Biowest S1860). Medium was filtered using 0.22 μm filters. Cells were plated on Matrigel coating (BD Biosciences#354234) and kept in an incubator (37° C., 5% CO2). […] The thus-obtained supernatant replaced FBS in the culture medium; the rest of the medium was unchanged.\nCells isolated by FACS were plated overnight on a 24-well glass bottom plate (P24G-0-10-F; MatTek) coated with matrigel (BD Biosciences#354234) and placed in an incubator in pre-equilibrated medium (1:1 DMEM Glutamax: MCDB [Sigma-Aldrich], 20% FCS (Biowest S1860). The plate was then incubated at 37° C., 5% CO2 (Zeiss, Pecon). A Zeiss Observer.Z1 connected with a LCI PInN 10×/0.8 W phaseII objective and AxioCam camera piloted with AxioVision was used. Cells were filmed for up to 5 days, and images were taken every 30 min with brightfield and phase filters and MozaiX 3×3 (Zeiss). Raw data were transformed and presented as a video.\nThose results were confirmed in vitro (FIG. 7a). […] This difference was lost when SC were plated with GR127935 (p=0.4) (FIG. 7e). The faster exit of quiescence and higher division rates were also lost when adding GR127935 in vitro (FIGS. 7f,g). The effects of the plasma from fluoxetine-treated animals were persistent when adding MDL100907 (FIGS. 7b-g)."}, "[4]": {"system": "serotonin receptors subtypes", "assay": "RT-qPCR of serotonin receptor subtypes in FACS-sorted muscle cells after treatment", "type": "in vivo, mouse", "conditions": "6 weeks P.O fluoxetine; FACS-sorted endothelial cells", "method": "Total RNA was isolated from cells using the RNAeasy Micro kit (Qiagen). The total RNA was reverse-transcribed using Superscript® III Reverse transcriptase (Invitrogen). Real-time quantitative PCR was performed using Power Sybr Green PCR Master Mix (Applied Biosystems) and the rate of dye incorporation was monitored using the StepOne™ Plus RealTime PCR system (Applied Biosystems). At least three biological replicates were used for each condition. Data were analyzed by StepOne Plus RT PCR software v2.1 and Microsoft excel. GAPDH transcript levels were used for normalisation of each target (=ΔCT). Real-time PCR CT values were analyzed using the 2-(ΔΔCt) method to calculate the fold expression (ΔΔCTmethod, Livak et al., 2001).\nRT-qPCR was then performed on serotonin receptors subtypes to further characterize by which the endothelial cells could be activated (FIG. 5b). […] The same observation was made in FACS cell-sorted SC from Tg:Pax7nGFP mice (FIG. 5b)."}, "[5]": {"system": "cytokines", "assay": "Plasmatic cytokine levels by Luminex in Mdx mice", "type": "in vivo, mouse", "conditions": "fluoxetine P.O. 6 weeks", "source_text": "Snap frozen plasma samples (n=6 per condition) were thawed out, and supernatant was processed for Luminex® multiple cytokine and chemokine analysis (Bio-Plex® Pro™ Mouse Cytokine Standard 23-Plex, Group I and Standard 9-Plex, Group II). Normalization was done by sample weight of frozen muscle."}, "[6]": {"system": "satellite cells", "assay": "FACS-sorted satellite cells in vitro, compound added to the culture medium", "type": "cell-based, mouse", "method": "as §1\nSatellite cells were isolated from Tg:Pax7nGFP mice and cells were plated at 2.000 cells per cm^2. After overnight, vortioxetine was added at 10 μM. […] 14 days post-plating, a higher number of reserve cells (Pax7 positive cells that are quiescent in vitro) were detected in the vortioxetine-treated cells (9%±0.7) than in the PBS (3.5%±0.9, p=0.01), and when GR127935 inhibitor was added in vitro the number of reserve cells dropped (3.5%±0.9, p=0.9) (FIG. 11c). […] This difference in expression was lost when SC were plated with the GR127935 5-HT1 BR inhibitor (p=0.4) (FIGS. 11c-e). The positive effects of vortioxetine were lost when GR127935 was added in vitro together with vortioxetine (FIGS. 11c-e). These effects were however persistent when adding the 5-HT2 BR antagonist (FIGS. 11c-e). This means that the positive effects observed when plating vortioxetine in vitro with satellite cells is mediated via the 5HT1B receptor and not 5HT2B.\nTo test whether, 2 derivatives of vortioxetine, namely histidine-vortioxetine and pyrrolidinium-vortioxetine, could have similar or improved effect compared to the unmodified vortioxetine, the in vitro approach as described in section 2.2.3 above was used and the differentiation cascade of satellite cells was investigated by assessing the expression pattern of Pax7 (a marker of stemness and quiescence) and Myogenin (MyoG, a marker of differentiation) as described above in section 2.2.3. To do so, satellite cells from Tg:Pax7-nGFP were isolated by FACS and plated at 2.000 cells per cm^2 (seeded overnight). The following day, the vortioxetine, its derivatives, or the control PBS was added at 10 μM and the cells were fixed at the indicated time points."}, "[7]": {"system": "vessels", "assay": "Vessel number in tibialis anterior of treated mice (Flk1GFP/+ or CD31 immunostaining)", "type": "in vivo, mouse", "conditions": "GR127935 in osmotic pump together with vortioxetine I.P 12 days"}, "[8]": {"conditions": "20% plasma from fluoxetine treated C57Bl/6 mice, live-videomicroscopy"}}}
{"smiles": "CNCCC(Oc1ccc(C(F)(F)F)cc1)c1ccccc1", "note": "(stereo not drawn) [fluoxetine]", "values": [{"measurement": "Growth of HUVEC vs placebo plasma", "setting": "[1]", "result": "faster"}, {"measurement": "Differentiation 4 days post-plating vs placebo plasma", "setting": "[2]", "result": "faster differentiation"}, {"measurement": "Self-renewal of the cells 14 days post-plating vs placebo plasma", "setting": "[2]", "result": "higher self-renewal"}, {"measurement": "Myogenine positive cells 4 days post-plating", "setting": "[3]; 20% plasma from fluoxetine treated C57Bl/6 mice", "result": "34.75±6.3 % of total plated cells"}, {"measurement": "Division rate", "setting": "[3]; [8]", "result": "8.7 ± 0.7", "unit": "h"}, {"measurement": "First satellite cells division, time post-plating", "setting": "[3]; [8]", "result": 26.45, "unit": "h"}, {"measurement": "Pax7 positive cells 4 days post-plating", "setting": "[3]; plasma from fluoxetine treated animals", "result": 24, "unit": "%"}, {"measurement": "Reserve cells (quiescent Pax7 positive cells) 14 days post-plating", "setting": "[3]", "result": 9.4, "unit": "%"}, {"measurement": "Myogenin (MyoG) expression increase", "setting": "[3]; plasma from fluoxetine-treated mice vs placebo", "result": 3, "unit": "times increase"}, {"measurement": "MyoD (activation marker) expression between conditions", "setting": "[3]; plasma from fluoxetine-treated mice vs placebo vs GR127935", "result": "did differ at any time investigated"}, {"measurement": "Expression of other subtypes (5-HT1 AR, 5-HT1 DR, 5-HT1 FR, 5-HT2 AR, 5-HT2 CR)", "setting": "[4]", "result": "non-statistically significant increase"}, {"measurement": "Level of IL6", "setting": "[5]", "result": "34.52 ± 21", "unit": "pg/mL"}, {"measurement": "Level of IL10", "setting": "[5]", "result": "99.6 ± 56", "unit": "pg/mL"}]}
{"smiles": "COc1ccc(NC(=O)c2ccc(-c3ccc(-c4noc(C)n4)cc3C)cc2)cc1N1CCN(C)CC1", "note": "[GR127935]", "values": [{"measurement": "Pax7 positive cells 4 days post-plating", "setting": "[3]; plasma from fluoxetine treated animals incubated with GR127935", "result": 35.25, "unit": "%"}, {"measurement": "Reserve cells (quiescent Pax7 positive cells) 14 days post-plating", "setting": "[3]; GR127935 added in vitro", "result": 4.5, "unit": "%"}, {"measurement": "MyoG expression difference when plated with GR127935", "setting": "[3]; plasma from fluoxetine-treated mice plus GR127935", "result": "lost"}, {"measurement": "Faster exit of quiescence and higher division rates when adding GR127935", "setting": "[3]; plasma from fluoxetine-treated mice plus GR127935 in vitro", "result": "lost"}, {"measurement": "Positive effects of vortioxetine (incl. MyoG expression difference) when GR127935 added", "setting": "[6]; GR127935 added in vitro together with vortioxetine 10 μM", "result": "lost"}, {"measurement": "Pax7 positive cells 4 days post-plating", "setting": "[6]; vortioxetine 10 μM incubated with the GR127935 inhibitor", "result": 25.5, "unit": "%"}, {"measurement": "Reserve cells (quiescent Pax7 positive cells) 14 days post-plating", "setting": "[6]; vortioxetine 10 μM, GR127935 inhibitor added in vitro", "result": 3.5, "unit": "%"}, {"measurement": "Number of vessels", "setting": "[7]", "result": "928±207", "unit": "vessels per mm^2"}]}
